Results on eight compounds are retold here after patent publication US4154837A, “(Aminoalkoxy-aryl)-substituted isoquinolinones and naphthydrinones and salts thereof, and hypotensive compositions and methods employing them” (Boehringer Ingelheim GmbH, priority 1977, dated 1979).

Read-outs that look alike come from different tables or passages of the source.

The subject of series [1] is isolated guinea pig auricle. Put plainly: effect on the force of contraction and frequency of the isolated guinea pig auricle. The conditions noted are these: Cavia porcellus, 37° C.; for inhibition at 30 µg/mL: 3.10^-5 gm/ml; for inhibition at 10 µg/mL: 10^-5 gm/ml; for inhibition at 100 µg/mL: 10^-4 gm/ml; for inhibition at 3 µg/mL: 3.10^-6 gm/ml. The method, then:
(2.) effect on the force of contraction and frequency of the isolated guinea pig auricle
In spontaneously beating isolated auricles of guinea pigs, which were kept in carbogen-aerated ([…] +5% CO2) Krebs-Henseleit-solution at a temperature of 37° C., and at predetermined concentrations of the test compounds, the maximum developed tension (isometric force of contraction) and the frequency were measured: […]

For series [2], the system named is blood circulation of dogs. Put plainly: Effect on blood circulation (arterial blood pressure, heart rate, contractility dp/dt max) in anesthetized dogs. Format: in vivo. The conditions noted are these: for Decrease of contractility, duration / inhibition in vivo at 1 mg/kg / inhibition in vivo at 0.25 mg/kg: left ventricle; for inhibition in vivo at 1 mg/kg / inhibition in vivo at 0.25 mg/kg: Canis lupus familiaris, iv, read-out: Decrease of contractility dp/dt max. The method, then: (1.) Effect on blood circulation: The blood circulation tests were performed on dogs with a body weight of 19-30 kg under chloralose-urethane-nembutalanesthesia (54+270+10 mg/kg i.v.). After opening the thorax in the 4th left intercostal space, artificial respiration was applied to the animals with room air by means of an Harvard-Respirator. The arterial blood-pressure was measured in an arteria carotis with a Statham-transducer; the heart rate was measured electronically from the sequence of R-peaks of the electrocardiogram. The maximum rate of pressure increase (dp/dt max) in the left ventricle was measured by means of a Konigsberg pressure-receiver and a Grass differentiation amplifier. All parameters were recorded by means of a direct-writer. For inhibition of coagulation the animals were given 10 mgm/kg of potassium polyethylenesulfonate i.v. in 20% of polydiol. The test compounds were intravenously administered to 4-6 dogs per compound.

Series [3] is described as follows: in vivo. The conditions noted are these: mouse, mice, observation period 14 days. The method, then:
(3.) determination of acute toxicity
The acute toxicity of the test compounds was determined in mice (observation period: 14 days) after oral or intravenous administration. The LD50 was calculated from the percentage of the animals that dies during the observation period after administration of varying doses: […]

[4] abbreviates: read-out: Decrease in frequency.
The mark [5] stands for this setting: read-out: Decrease in maximum force of contraction.

As to `COc1cc2cc(-c3ccc(OCC(O)CNC(C)C)cc3)n(C)c(=O)c2cc1OC` (stereo not drawn) [F, 2-methyl-3-[4-(2-hydroxy-3-isopropylamino-propoxy)-phenyl]-6,7-dimethoxy-isoquinolin-1 (2H)-one], in series [1] (setting [4]), the inhibition at 30 µg/mL was determined as 29% and the inhibition at 10 µg/mL worked out at 22%. Further, in series [1] (setting [5]), the inhibition at 30 µg/mL came out at 43% and the inhibition at 10 µg/mL worked out at 30%. In series [2] (1.0 mgm/kg i.v.), the “Decrease in heart rate” value is given as 12 ± 6 beats/min; the “Decrease in heart rate, duration” value was determined as 31 min; the “Effect on average arterial blood pressure” value is listed as -7 ± 3 mm Hg; the “Effect on average arterial blood pressure, duration” value (shortened to “Effect … duration”) was 17 min. Also, in series [2] (1.0 mgm/kg i.v.), the “Decrease of contractility, duration” value amounted to 43 min and the inhibition in vivo at 1 mg/kg came out at 33 ± 6%.

As to `COc1ccc(-c2cc3ccc(OC)cc3c(=O)n2C)c(OCC(O)CNC(C)(C)C)c1` (stereo not drawn) [D, 2-methyl-3-[2-(2-hydroxy-3-tert. butylamino-propoxy)-4-methoxy-phenyl]-7-methyoxy-isoquinoline-1 (2H)-one-oxalate], in series [1] (setting [4]), the inhibition at 30 µg/mL was determined as 40%. Further, the inhibition at 30 µg/mL in series [1] (setting [5]) is 64%. For the same compound, in series [2] (0.25 mgm/kg i.v.), the “Decrease in heart rate” value is on record as 15 ± 5 beats/min; the “Decrease in heart rate, duration” value was found to be 27 min; the “Effect on average arterial blood pressure” value is -6 ± 3 mm Hg; the “Effect … duration” value stood at 24 min. In series [2] (0.25 mgm/kg i.v.), the “Decrease of contractility, duration” value came out at 28 min and the inhibition in vivo at 0.25 mg/kg came to 36 ± 13%.

Regarding `COc1cc2cc(-c3ccc(OCC(O)CNC(C)(C)C)cc3)n(C)c(=O)c2cc1OC` (stereo not drawn) [E, 2-methyl-3-[4-(2-hydroxy-3-tert. butylamino-propoxy)-phenyl]-6,7-dimethoxy-isoquinolin-1 (2H)-one], in series [1] (setting [4]), the inhibition at 30 µg/mL was 31% and the inhibition at 100 µg/mL was determined as 46%. For the same compound, in series [1] (setting [5]), the inhibition at 30 µg/mL was 54% and the inhibition at 100 µg/mL is 72%. Further, in series [2] (1.0 mgm/kg i.v.), the “Decrease in heart rate” value worked out at 25 ± 6 beats/min; the “Decrease in heart rate, duration” value amounted to 51 min; the “Effect on average arterial blood pressure” value is -18 ± 11 mm Hg; the “Effect … duration” value was found to be 11 min. In addition, in series [2] (1.0 mgm/kg i.v.), the “Decrease of contractility, duration” value is 51 min and the inhibition in vivo at 1 mg/kg came out at 52 ± 8%.

For the compound `COc1ccc2cc(-c3ccc(OCC(O)CNC(C)(C)C)cc3)n(C)c(=O)c2c1` (stereo not drawn) [A, 2-methyl-3-[4-(2-hydroxy-3-tert. butylamino-propoxy)-phenyl]-7-methoxy-isoquinolin-1 (2H)-one], in series [1] (setting [4]), the inhibition at 30 µg/mL was determined as 30% and the inhibition at 10 µg/mL stood at 23%. Further, in series [1] (setting [5]), the inhibition at 30 µg/mL was 82% and the inhibition at 10 µg/mL came out at 50%. For the same compound, in series [3] (iv), the LD50 at 336 h is 62 mg/kg. The compound further displayed an LD50 at 336 h in series [3] (po) of 460 mg/kg. In series [2] (1.0 mgm/kg i.v.), the “Decrease in heart rate” value is recorded as 29 ± 15 beats/min; the “Decrease in heart rate, duration” value is 36 min; the “Effect on average arterial blood pressure” value is on record as -20 ± 2 mm Hg; the “Effect … duration” value came to 50 min. For the same compound, in series [2] (1.0 mgm/kg i.v.), the “Decrease of contractility, duration” value came to 44 min and the inhibition in vivo at 1 mg/kg is 50 ± 10%.

Turning to `COc1ccc(-c2cc3ccc(OC)cc3c(=O)n2C)c(OCC(O)CNC(C)C)c1.O=C(O)C(=O)O` (stereo not drawn) [C, 2-methyl-3-[2-(2-hydroxy-3-isopropylamino-propoxy)-4-methoxy-phenyl]-7-methoxy-isoquinolin-1 (2H)-one-oxalate], in series [1] (setting [4]), the inhibition at 3 µg/mL stood at 15% and the inhibition at 10 µg/mL came out at 29%. In addition, in series [1] (setting [5]), the inhibition at 3 µg/mL amounted to 17% and the inhibition at 10 µg/mL is 29%. Also, the LD50 at 336 h in series [3] (iv) is 50 mg/kg. The LD50 at 336 h in series [3] (po) came out at 500 mg/kg. Also, in series [2] (1.0 mgm/kg i.v.), the “Decrease in heart rate” value is 38 ± 2 beats/min; the “Decrease in heart rate, duration” value was found to be 50 min; the “Effect on average arterial blood pressure” value is listed as -17 ± 3 mm Hg; the “Effect … duration” value stood at 40 min. In series [2] (1.0 mgm/kg i.v.), the “Decrease of contractility, duration” value turned out to be 50 min and the inhibition in vivo at 1 mg/kg was 53 ± 6%.

On to `COc1ccc2cc(CCc3ccc(OCC(O)CNC(C)C)cc3)n(C)c(=O)c2c1` (stereo not drawn) [H, 2-methyl-3-[4-(2-hydroxy-3-isopropylamino-propoxy)-phenethyl]-7-methoxy-isoquinolin-1 (2H)-one], for which, in series [2] (1.0 mgm/kg i.v.), the “Decrease in heart rate” value amounted to 34 ± 10 beats/min; the “Decrease in heart rate, duration” value was found to be 47 min; the “Effect on average arterial blood pressure” value is -25 ± 15 mm Hg; the “Effect … duration” value turned out to be 20 min. Besides, in series [2] (1.0 mgm/kg i.v.), the “Decrease of contractility, duration” value is 47 min and the inhibition in vivo at 1 mg/kg came out at 53 ± 13%.

Consider `COc1ccc2cc(-c3ccccc3OCC(O)CNC(C)C)n(C)c(=O)c2c1.O=C(O)C(=O)O` (stereo not drawn) [B, 2-methyl-3-[2-(2-hydroxy-3-isopropylamino-propoxy)-phenyl]-7-methoxy-isoquinolin-1 (2H)-one-oxalate], for which the LD50 at 336 h in series [3] (iv) was 47 mg/kg. In series [2] (1.0 mgm/kg i.v.), the “Decrease in heart rate” value was determined as 19 ± 6 beats/min; the “Decrease in heart rate, duration” value was determined as 50 min; the “Effect on average arterial blood pressure” value is -24 ± 2 mm Hg; the “Effect … duration” value turned out to be 41 min. Besides, in series [2] (1.0 mgm/kg i.v.), the “Decrease of contractility, duration” value is 47 min and the inhibition in vivo at 1 mg/kg turned out to be 51 ± 7%.

For `COc1ccc2cc(-c3ccc(OCC(O)CNC(C)C)c(OC)c3)n(C)c(=O)c2c1` (stereo not drawn) [G, 2-methyl-3-[3-methoxy-4-(2-hydroxy-3-isopropylamino-propoxy)-phenyl]-7-methoxy-isoquinolin-1 (2H)-one], in series [1] (setting [4]), the inhibition at 30 µg/mL was 37% and the inhibition at 10 µg/mL amounted to 22%. In series [1] (setting [5]), the inhibition at 30 µg/mL amounted to 48% and the inhibition at 10 µg/mL came to 35%. For the same compound, in series [2] (0.25 mgm/kg i.v.), the “Decrease in heart rate” value worked out at 37 ± 5 beats/min; the “Decrease in heart rate, duration” value was found to be 54 min; the “Effect on average arterial blood pressure” value is -3 ± 2 mm Hg; the “Effect … duration” value is 20 min. For the same compound, in series [2] (0.25 mgm/kg i.v.), the “Decrease of contractility, duration” value stood at 48 min and the inhibition in vivo at 0.25 mg/kg was 48 ± 6%.
